Data set [1] concerns embryonic kidney HEK 293T/17. Briefly: In vitro cytotoxicity MTS assay, HEK 293T/17. The settings on record: for cell viability HEK 293T/17 (MTS): 16 h. On the technique in general: Tetrazolium assays rely on reduction of a dye to a coloured formazan, in cell work by metabolically active cells.
The test system of a further data set is liver carcinoma HepG2. Briefly: In vitro cytotoxicity MTS assay, HepG2. The settings on record: for cell viability HepG2 (MTS): 16 h.
Data set [2] relates to C. difficile 4118 (CD4118, ATCC BAA-1870, BI/NAP1/027). Briefly: MIC by broth microdilution against C. difficile 4118. Format: cell-based, Clostridium difficile. The note with it: Clostridioides difficile.
The test system of data set [3] is C. difficile 630 (CD630, ATCC BAA-1382). The data set is described as follows: MIC by broth microdilution against C. difficile 630. Format: cell-based, Clostridium difficile. The settings on record: Clostridioides difficile, ATCCBAA1382; 20-24 h, 37° C.
The next data set has as its system P. aeruginosa PAO1. Briefly: MIC against aerobic bacteria. Format: cell-based, Pseudomonas aeruginosa. The note with it: Pseudomonas aeruginosa, PAO1, read-out: MIC P. aeruginosa PAO1.
For the next data set, the system named is P. nigrescens ATCC 33563. The data set is described as follows: MIC against anaerobic bacteria. Format: cell-based, Prevotella nigrescens. The settings on record: Prevotella nigrescens, ATCC33563, read-out: MIC P. nigrescens ATCC 33563.
A further data set has as its system P. distasonis ATCC 8503. Briefly: MIC against anaerobic bacteria. Format: cell-based, Parabacteroides distasonis. The settings on record: Parabacteroides distasonis, ATCC8503, read-out: MIC P. distasonis ATCC 8503.
Another data set relates to S. aureus RN4220. The data set is described as follows: MIC against aerobic bacteria. Format: cell-based. The note with it: Staphylococcus aureus.
In data set [4] the test system is C. clostridioforme ATCC 25537. The data set is described as follows: MIC against anaerobic bacteria. It is filed as cell-based, Clostridium clostridioforme. The note with it: Clostridium, ATCC25537, read-out: MIC C. clostridioforme ATCC 25537.
A further data set relates to A. baumannii M2. Briefly: MIC against aerobic bacteria. Format: cell-based. The settings on record: Acinetobacter baumannii, M2, read-out: MIC A. baumannii M2.
Another data set concerns S. epidermidis 1457. The data set is described as follows: MIC against aerobic bacteria. The settings on record: Staphylococcus epidermidis, 1457, read-out: MIC S. epidermidis 1457. It is filed as cell-based.
The subject of data set [5] is B. thetaiotaomicron ATCC 29148. The data set is described as follows: microbe, parasite or virus in culture. It is filed as cell-based. The settings on record: Bacteroides thetaiotaomicron, ATCC29148, read-out: MIC B. thetaiotaomicron ATCC 29148.
Data set [6] deals with Clostridium difficile strain 4118. Briefly: Minimum bactericidal concentration (MBC), logarithmic- and stationary-phase cells. The note with it: 3-log reduction of inoculum; for MBC: Clostridioides difficile. Format: cell-based. Here is the method:
The MBClog values of the protonophores were determined to be 0.25-2 μg/mL (˜4 to 8-fold greater than their respective MIC values).
Clostridium difficile strain 4118 was grown to OD600˜0.4-0.5 (logarithmic phase) or for 24 h (stationary phase), and thereafter added to two-fold serial dilutions of test compounds. Cultures were incubated for 20-24 h at 37° C., and then viable counts were enumerated on BHIS agar plates. […] MBC measurements were performed in duplicate.

For another data set, the system named is C. sporogenes ATCC 15579. The data set is described as follows: microbe, parasite or virus in culture. Format: cell-based, Clostridium sporogenes. The settings on record: Clostridium sporogenes, ATCC15579, read-out: MIC C. sporogenes ATCC 15579.
The subject of the next data set is B. subtilis ATCC 6051. The data set is described as follows: MIC against aerobic bacteria. It is filed as cell-based, Bacillus subtilis. The note with it: Bacillus subtilis, ATCC6051, read-out: MIC B. subtilis ATCC 6051.
The test system of data set [7] is panel of aerobic and anaerobic organisms. Format: cell-based.
For data set [8], the system named is C. difficile strains 630 (CD630) and 4118 (CD4118). Briefly: MIC / growth inhibition against C. difficile, covering both strains. Format: cell-based, Clostridium difficile. The settings on record: Clostridioides difficile, read-out: MIC against C. difficile.
The conditions of data set [9]: in vivo; cited from earlier work.
The next data set deals with sheep erythrocytes. The data set is described as follows: Hemolysis assay. The settings on record: tested at 32 μg/mL; 37° C., 1 h.
Where [10] appears, read: ATCCBAA1870, Table 1, strain 4118, 20-24 h, 37° C., read-out: MIC C. difficile 4118.
Setting [11] is: logarithmic-phase cells of strain 4118, read-out: MBClog.
Where [12] appears, read: stationary-phase cells of strain 4118, read-out: MBCstat.
[13] abbreviates: RN4220, aerobic, read-out: MIC S. aureus RN4220.

In brackets after ≈: the same amount, converted by molar mass. Like-named read-outs stand apart in the source and are kept apart here. Bounds are passed on as bounds.

Method for sheep erythrocytes: Sheep red blood cells (Innovative Research, Novi, Mich., USA) were washed three times with PBS pH 7.4. A 3% cell suspension in PBS (100 μL) was added to test compounds in PBS (100 μL), and then incubated at 37° C. for 1 h. The plate was centrifuged at 500×g for 10 min, and supernatants (100 μL) were transferred to a clean 96-well plate. Hemolysis was determined by measuring absorbance at 540 nm, with 1% Triton X-100 as the positive control and 0.5% DMSO in PBS as the negative control. Hemolysis assays were performed in triplicate.

With `O=C(Nc1ccc([N+](=O)[O-])cc1Cl)c1cc(Cl)ccc1O` [Niclosamide, niclosamide], the “cell viability HEK 293T/17 (MTS)” value in [1] (0.125 μg/mL) was “significant decrease in viability”. Also, the “cell viability HepG2 (MTS)” value in the data set on liver carcinoma HepG2 (0.125 μg/mL) is on record as “significant decrease in viability”. For the same compound, the MIC in data set [2] (setting [10]) was 4 µg/mL (≈ 12.2 µM).
With `CN[C@H](CC(C)C)C(=O)N[C@H]1C(=O)N[C@@H](CC(N)=O)C(=O)N[C@H]2C(=O)N[C@H]3C(=O)N[C@H](C(=O)N[C@H](C(=O)O)c4cc(O)cc(O)c4-c4cc3ccc4O)[C@H](O)c3ccc(c(Cl)c3)Oc3cc2cc(c3O[C@@H]2O[C@H](CO)[C@@H](O)[C@H](O)[C@H]2O[C@H]2C[C@](C)(N)[C@H](O)[C@H](C)O2)Oc2ccc(cc2Cl)[C@H]1O` [Vancomycin, vancomycin, reference compound], the MIC in [3] is 1 µg/mL (≈ 0.69 µM); in the data set on P. aeruginosa PAO1, greater than 32 µg/mL; in the data set with P. nigrescens ATCC 33563, greater than 32 µg/mL; in the data set on P. distasonis ATCC 8503, greater than 32 µg/mL; with S. aureus RN4220 (RN4220, read-out: MIC S. aureus RN4220), 1 µg/mL (≈ 0.69 µM); in [4] it was 0.5 µg/mL (≈ 0.345 µM). For the same compound, the MIC in the data set with A. baumannii M2 was greater than 32 µg/mL; in the data set on S. epidermidis 1457, 2 µg/mL (≈ 1.38 µM); in [5], greater than 32 µg/mL; in the data set on C. sporogenes ATCC 15579 it was 2 µg/mL (≈ 1.38 µM); in the data set with B. subtilis ATCC 6051, 0.13 µg/mL (≈ 0.0897 µM); in data set [2] (ATCCBAA1870), 2 µg/mL (≈ 1.38 µM). Also, the MIC was 2 µg/mL (≈ 1.38 µM) in [2] (ATCCBAA1870, 20-24 h, 37° C., read-out: MIC C. difficile 4118) and 1 to 2 µg/mL (≈ 0.69 to 1.38 µM) in data set [8]. For the same compound, the MBC in data set [6] (setting [11]) is 8 µg/mL (≈ 5.52 µM); in data set [6] (setting [12]), greater than 32 µg/mL. This compound also displayed an MBCstat in data set [6] (stationary-phase cells of strain 4118) greater than 32 µg/mL. Moreover, the “antibacterial spectrum (in words)” value in data set [7] is “Gram-positive organisms”.
For `Cc1cc(C(C#N)c2ccc(Cl)cc2)c(Cl)cc1NC(=O)c1cc(I)cc(I)c1O` (stereo not drawn) [Closantel, reference compound], the MIC in the data set on S. aureus RN4220 (setting [13]) was 0.25 µg/mL (≈ 0.377 µM); in [5], greater than 32 µg/mL; in the data set on C. sporogenes ATCC 15579, 1 µg/mL (≈ 1.51 µM); in data set [2] (setting [10]), 0.25 µg/mL (≈ 0.377 µM). The “excreted unchanged in the feces” value in [9] is listed as no more than 90%.
Take `O=C(Nc1ccc(Oc2ccc(Cl)cc2)c(Cl)c1)c1cc(I)cc(I)c1O` [Rafoxanide, rafoxanide, reference compound]: the MIC in the data set with P. aeruginosa PAO1 is greater than 32 µg/mL; with P. nigrescens ATCC 33563, 8 µg/mL (≈ 12.8 µM); with P. distasonis ATCC 8503 it was 8 µg/mL (≈ 12.8 µM); in the data set on S. aureus RN4220 (setting [13]), 0.25 µg/mL (≈ 0.399 µM); in [4] it was 1 µg/mL (≈ 1.6 µM); with A. baumannii M2, greater than 32 µg/mL. Further, the MIC is no more than 0.03 µg/mL with S. epidermidis 1457; greater than 32 µg/mL in [5]; 1 µg/mL (≈ 1.6 µM) with C. sporogenes ATCC 15579; no more than 0.03 µg/mL with B. subtilis ATCC 6051; 0.13 µg/mL (≈ 0.208 µM) in data set [2] (ATCCBAA1870); 0.13 µg/mL (≈ 0.208 µM) in data set [2] (ATCCBAA1870, read-out: MIC C. difficile 4118). In [1] (8 μg/mL), the “cell viability HEK 293T/17 (MTS)” value is recorded as “no apparent effect on mammalian cell viability”. Besides, the “in vitro toxicity toward HEK 293T/17 compared with niclosamide” value in [1] (relative to niclosamide) is listed as “comparably lower in vitro toxicities”. For the same compound, the “rupture of red blood cells (hemolysis)” value with sheep erythrocytes is given as “did not cause rupture of red blood cells”. For the same compound, in the data set with liver carcinoma HepG2 (8 μg/mL), the “cell viability HepG2 (MTS)” value is given as “no apparent effect on mammalian cell viability”. For the same compound, in the data set on liver carcinoma HepG2 (relative to niclosamide), the “in vitro toxicity toward HepG2 compared with niclosamide” value is listed as “comparably lower in vitro toxicities”. Moreover, the MBC in data set [6] (setting [11]) turned out to be 0.5 µg/mL (≈ 0.799 µM); in data set [6] (setting [12]) it was 1 µg/mL (≈ 1.6 µM).

(Values after patent US10792272B2, “Methods for treatment of Clostridium difficile infections” (priority 2016, dated 2020).)
